# pEC50, pIC50: −log10 of the molar value. Where two headings read alike, the source gives them in different places.
# Columns and labels:
# [1] = target: T1, HCV NS3/4A protease complex, BMS strain (UniProt P27958, species not given/STRAIN_BMS); test: FRET peptide assay to monitor HCV NS3/4A proteolytic activity (BMS strain); format: biochemical, Hepatitis C virus (genotype 1a); settings: read-out: HCV Protease (IC50), NS3/4A BMS strain
# T1 construct: other: NS3/4A BMS strain; activity range class; numeric values, unit not given; said of H77 and J4L6S; fused on or other part: A three-lysine solubilising tail at the C-terminus of NS4A; A His tag is implied by the pET21b vector and Ni-NTA purification; Both are printed for the H77 and J4L6S constructs and apply to BMS by inference
# How it was run: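 Inhibition measured by real-time fluorescence increase as the protease cleaves RET S1 FRET depsipeptide (2 μM final). Enzyme: >90% pure BMS-strain (1a) NS3/4A at 2-3 nM final, or 300 pM with 50 μg/ml BSA for potent compounds. Buffer: 50 mM HEPES pH 7.5, 0.15 M NaCl, 0.1% Triton, 15% glycerol, 10 mM βME.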
# [2] = tested on: HCV replicon (strain 1b) in HUH-7 cells; test: HCV replicon FRET assay; format: cell-based, Hepatitis C virus; settings: Hepatitis C virus, Huh-7, read-out: HCV Pro Replicon (EC50), HCV replicon cell assay
# T1 sequence (P27958 1027-1657, change not shown, one chain of several): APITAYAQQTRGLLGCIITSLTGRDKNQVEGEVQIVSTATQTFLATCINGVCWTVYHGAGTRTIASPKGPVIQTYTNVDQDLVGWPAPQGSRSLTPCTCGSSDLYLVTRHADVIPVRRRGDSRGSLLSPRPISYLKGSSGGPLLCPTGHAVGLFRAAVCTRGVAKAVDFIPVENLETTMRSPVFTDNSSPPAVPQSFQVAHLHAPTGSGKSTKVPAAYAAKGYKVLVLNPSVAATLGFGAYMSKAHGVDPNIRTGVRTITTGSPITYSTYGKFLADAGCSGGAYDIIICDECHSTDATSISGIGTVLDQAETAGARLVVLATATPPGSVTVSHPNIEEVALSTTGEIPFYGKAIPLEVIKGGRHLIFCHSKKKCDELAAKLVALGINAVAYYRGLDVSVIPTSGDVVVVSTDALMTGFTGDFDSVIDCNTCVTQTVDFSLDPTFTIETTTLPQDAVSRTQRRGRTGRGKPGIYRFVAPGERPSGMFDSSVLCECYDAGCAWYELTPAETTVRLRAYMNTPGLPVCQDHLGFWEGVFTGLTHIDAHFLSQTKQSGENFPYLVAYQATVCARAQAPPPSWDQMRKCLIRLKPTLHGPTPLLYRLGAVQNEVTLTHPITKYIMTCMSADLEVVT
Compound,pIC50 ([1]; activity range class),pEC50 ([2]; activity range class),"pIC50 ([1]; numeric values, unit inferred)","pEC50 ([2]; numeric values, unit inferred)"
"C=C[C@@H]1C[C@]1(NC(=O)[C@@H]1C[C@@H](Oc2ncc(OC)c3ccc(Cl)cc23)CN1C(=O)[C@H](Nc1ccc(S(=O)(=O)NCC)cc1)C(C)(C)C)C(=O)NS(=O)(=O)C1CC1 [223 second isomer, N-(4-(ethylsulfamoyl)phenyl)-3-methyl-D-valyl-(4R)-4-((7-chloro-4-methoxy-1-isoquinolinyl)oxy)-N-((1R,2S)-1-((cyclopropylsulfonyl)carbamoyl)-2-vinylcyclopropyl)-L-prolinamide]",< 6.70,< 6.00,,
"C=C[C@@H]1C[C@]1(NC(=O)[C@@H]1C[C@@H](Oc2ncc(OC)c3ccc(Cl)cc23)CN1C(=O)[C@@H](Nc1ccc(S(=O)(=O)N(C)C)cc1)C(C)(C)C)C(=O)NS(=O)(=O)C1CC1 [224 first isomer, N-(4-(dimethylsulfamoyl)phenyl)-3-methyl-L-valyl-(4R)-4-((7-chloro-4-methoxy-1-isoquinolinyl)oxy)-N-((1R,2S)-1-((cyclopropylsulfonyl)carbamoyl)-2-vinylcyclopropyl)-L-prolinamide]",7.70 to 9.22,6.00 to 7.00,,
"C=C[C@@H]1C[C@]1(NC(=O)[C@@H]1C[C@@H](Oc2ncc(OC)c3ccc(Cl)cc23)CN1C(=O)[C@H](Nc1ccc(S(=O)(=O)N(C)C)cc1)C(C)(C)C)C(=O)NS(=O)(=O)C1CC1 [224 second isomer, N-(4-(dimethylsulfamoyl)phenyl)-3-methyl-D-valyl-(4R)-4-((7-chloro-4-methoxy-1-isoquinolinyl)oxy)-N-((1R,2S)-1-((cyclopropylsulfonyl)carbamoyl)-2-vinylcyclopropyl)-L-prolinamide]",< 6.70,6.00 to 7.00,,
"C=C[C@@H]1C[C@]1(NC(=O)[C@@H]1C[C@@H](Oc2ncc(OC)c3ccc(Cl)cc23)CN1C(=O)[C@@H](Nc1ccc(C(N)=O)cc1)C(C)(C)C)C(=O)NS(=O)(=O)C1CC1 [226 first isomer, N-(4-carbamoylphenyl)-3-methyl-L-valyl-(4R)-4-((7-chloro-4-methoxy-1-isoquinolinyl)oxy)-N-((1R,2S)-1-((cyclopropylsulfonyl)carbamoyl)-2-vinylcyclopropyl)-L-prolinamide]",7.70 to 9.22,7.00 to 8.52,,
"C=C[C@@H]1C[C@]1(NC(=O)[C@@H]1C[C@@H](Oc2ncc(OC)c3ccc(Cl)cc23)CN1C(=O)[C@@H](Nc1cccc(S(=O)(=O)NC)c1)C(C)(C)C)C(=O)NS(=O)(=O)C1CC1 [227 first isomer, 3-methyl-N-(3-(methylsulfamoyl)phenyl)-L-valyl-(4R)-4-((7-chloro-4-methoxy-1-isoquinolinyl)oxy)-N-((1R,2S)-1-((cyclopropylsulfonyl)carbamoyl)-2-vinylcyclopropyl)-L-prolinamide]",7.70 to 9.22,7.00 to 8.52,,
"C=C[C@@H]1C[C@]1(NC(=O)[C@@H]1C[C@@H](Oc2ncc(OC)c3ccc(Cl)cc23)CN1C(=O)[C@H](Nc1cccc(S(=O)(=O)NC)c1)C(C)(C)C)C(=O)NS(=O)(=O)C1CC1 [227 second isomer, 3-methyl-N-(3-(methylsulfamoyl)phenyl)-D-valyl-(4R)-4-((7-chloro-4-methoxy-1-isoquinolinyl)oxy)-N-((1R,2S)-1-((cyclopropylsulfonyl)carbamoyl)-2-vinylcyclopropyl)-L-prolinamide]",< 6.70,< 6.00,,
"C=C[C@@H]1C[C@]1(NC(=O)[C@@H]1C[C@@H](Oc2ncc(OC)c3ccc(Cl)cc23)CN1C(=O)[C@@H](Nc1cccc(C(=O)OC(C)C)c1)C(C)(C)C)C(=O)NS(=O)(=O)C1CC1 [231 first isomer, N-(3-(isopropoxycarbonyl)phenyl)-3-methyl-L-valyl-(4R)-4-((7-chloro-4-methoxy-1-isoquinolinyl)oxy)-N-((1R,2S)-1-((cyclopropylsulfonyl)carbamoyl)-2-vinylcyclopropyl)-L-prolinamide]",7.70 to 9.22,7.00 to 8.52,,
"C=C[C@@H]1C[C@]1(NC(=O)[C@@H]1C[C@@H](Oc2ncc(OC)c3ccc(Cl)cc23)CN1C(=O)[C@H](Nc1cccc(C(=O)OC(C)C)c1)C(C)(C)C)C(=O)NS(=O)(=O)C1CC1 [231 second isomer, N-(3-(isopropoxycarbonyl)phenyl)-3-methyl-D-valyl-(4R)-4-((7-chloro-4-methoxy-1-isoquinolinyl)oxy)-N-((1R,2S)-1-((cyclopropylsulfonyl)carbamoyl)-2-vinylcyclopropyl)-L-prolinamide]",< 6.70,< 6.00,,
"C=C[C@@H]1C[C@]1(NC(=O)[C@@H]1C[C@@H](Oc2ncc(OC)c3ccc(Cl)cc23)CN1C(=O)[C@@H](Nc1cccc(C(=O)OC)c1)C(C)(C)C)C(=O)NS(=O)(=O)C1CC1 [232 first isomer, N-(3-(methoxycarbonyl)phenyl)-3-methyl-L-valyl-(4R)-4-((7-chloro-4-methoxy-1-isoquinolinyl)oxy)-N-((1R,2S)-1-((cyclopropylsulfonyl)carbamoyl)-2-vinylcyclopropyl)-L-prolinamide]",7.70 to 9.22,7.00 to 8.52,,
"C=C[C@@H]1C[C@]1(NC(=O)[C@@H]1C[C@@H](Oc2ncc(OC)c3ccc(Cl)cc23)CN1C(=O)[C@H](Nc1cccc(C(=O)OC)c1)C(C)(C)C)C(=O)NS(=O)(=O)C1CC1 [232 second isomer, N-(3-(methoxycarbonyl)phenyl)-3-methyl-D-valyl-(4R)-4-((7-chloro-4-methoxy-1-isoquinolinyl)oxy)-N-((1R,2S)-1-((cyclopropylsulfonyl)carbamoyl)-2-vinylcyclopropyl)-L-prolinamide]",6.70 to 7.70,7.00 to 8.52,,
"C=C[C@@H]1C[C@]1(NC(=O)[C@@H]1C[C@@H](Oc2ncc(OC)c3ccc(Cl)cc23)CN1C(=O)[C@@H](Nc1ccccc1F)C(C)(C)C)C(=O)NS(=O)(=O)C1CC1 [234 first isomer, N-(2-fluorophenyl)-3-methyl-L-valyl-(4R)-4-[(7-chloro-4-methoxy-1-isoquinolinyl)oxy]-N-((1R,2S)-1-{[(cyclopropylsulfonyl)amino]carbonyl}-2-vinylcyclopropyl)-L-prolinamide]",6.70 to 7.70,6.00 to 7.00,,
"C=C[C@@H]1C[C@]1(NC(=O)[C@@H]1C[C@@H](Oc2ncc(OC)c3ccc(Cl)cc23)CN1C(=O)[C@H](Nc1ccccc1F)C(C)(C)C)C(=O)NS(=O)(=O)C1CC1 [234 second isomer, N-(2-fluorophenyl)-3-methyl-D-valyl-(4R)-4-[(7-chloro-4-methoxy-1-isoquinolinyl)oxy]-N-((1R,2S)-1-{[(cyclopropylsulfonyl)amino]carbonyl}-2-vinylcyclopropyl)-L-prolinamide]",< 6.70,< 6.00,,
"C=C[C@@H]1C[C@]1(NC(=O)[C@@H]1C[C@@H](Oc2nc3c(c4cc(OC)ccc24)OCCN3C)CN1C(=O)[C@H](Nc1ccc(F)c(F)c1)C(C)(C)C)C(=O)NS(=O)(=O)C1CC1 [235 second isomer, N-(3,4-difluorophenyl)-3-methyl-D-valyl-(4R)—N-((1R,2S)-1-((cyclopropylsulfonyl)carbamoyl)-2-vinylcyclopropyl)-4-((9-methoxy-4-methyl-3,4-dihydro-2H-[1,4]oxazino[3,2-c]isoquinolin-6-yl)oxy)-L-prolinamide]",7.70 to 9.22,7.00 to 8.52,,
"C=C[C@@H]1C[C@]1(NC(=O)[C@@H]1C[C@@H](Oc2nccc3cc(OC)ccc23)CN1C(=O)[C@@H](Nc1cc(C)cc(C)n1)C(C)C)C(=O)NS(=O)(=O)C1CC1 [Compound 1A, N-(4,6-dimethyl-2-pyridinyl)-L-valyl-(4R)—N-((1R,2S)-1-((cyclopropylsulfonyl)carbamoyl)-2-vinylcyclopropyl)-4-((6-methoxy-1-isoquinolinyl)oxy)-L-prolinamide]",7.70 to 9.22,7.00 to 8.52,,
"C=C[C@@H]1C[C@]1(NC(=O)[C@@H]1C[C@@H](Oc2nccc3cc(OC)ccc23)CN1C(=O)[C@H](Nc1cc(C)cc(C)n1)C(C)C)C(=O)NS(=O)(=O)C1CC1 [Compound 1B, N-(4,6-dimethyl-2-pyridinyl)-D-valyl-(4R)—N-((1R,2S)-1-((cyclopropylsulfonyl)carbamoyl)-2-vinylcyclopropyl)-4-((6-methoxy-1-isoquinolinyl)oxy)-L-prolinamide]",,,6.54,5.79
"C=C[C@@H]1C[C@]1(NC(=O)[C@@H]1C[C@@H](Oc2nccc3cc(OC)ccc23)CN1C(=O)[C@@H](Nc1nc(OC)nc(OC)n1)C(C)(C)C)C(=O)NS(=O)(=O)C1CC1 [Compound 3, N-(4,6-dimethoxy-1,3,5-triazin-2-yl)-3-methyl-L-valyl-(4R)—N-((1R,2S)-1-((cyclopropylsulfonyl)carbamoyl)-2-vinylcyclopropyl)-4-((6-methoxy-1-isoquinolinyl)oxy)-L-prolinamide]",7.70 to 9.22,< 6.00,,
"C=C[C@@H]1C[C@]1(NC(=O)[C@@H]1C[C@@H](Oc2nccc3cc(OC)ccc23)CN1C(=O)[C@@H](Nc1nc(OC)nc(OC)n1)C(C)C)C(=O)NS(=O)(=O)C1CC1 [Compound 4, N-(4,6-dimethoxy-1,3,5-triazin-2-yl)valyl-(4R)—N-((1R,2S)-1-((cyclopropylsulfonyl)carbamoyl)-2-vinylcyclopropyl)-4-((6-methoxy-1-isoquinolinyl)oxy)-L-prolinamide]",6.70 to 7.70,< 6.00,,
